Row | melting point | SMILES
1 | 199 to 200 °C | N#Cc1cc(Oc2ccc(NC(=O)Nc3ccc4c(c3)OC(F)(F)O4)cc2)ccn1 [Entry 109, N-(2,2-difluorobenzo[d]1,3-dioxolan-5-yl){[4-(2-cyano(4-pyridyloxy))phenyl]amino}carboxamide]
2 | 193.5 to 194.5 °C | N#Cc1cc(Oc2ccc(NC(=O)Nc3ccc4c(c3)OC(F)(F)O4)cc2F)ccn1 [Entry 113, N-(2,2-difluorobenzo[d]1,3-dioxolan-5-yl){[4-(2-cyano(4-pyridyloxy))-3-fluorophenyl]amino}carboxamide]
3 | 169 to 171 °C | N#Cc1cc(Oc2ccc(NC(=O)Nc3ccc4c(c3)C(F)(F)OC(F)(F)O4)c(F)c2)ccn1 [Entry 124, {[4-(2-cyano(4-pyridyloxy))-2-fluorophenyl]amino}-N-(2,2,4,4-tetrafluorobenzo[3,4-e]1,3-dioxan-6-yl)carboxamide]
4 | 196 to 199.5 °C | N#Cc1cc(Oc2ccc(NC(=O)Nc3ccc4c(c3)C(F)(F)OC(F)(F)O4)cc2F)ccn1 [Entry 127, {[4-(2-cyano(4-pyridyloxy))-3-fluorophenyl]amino}-N-(2,2,4,4-tetrafluorobenzo[3,4-e]1,3-dioxan-6-yl)carboxamide]
5 | 220 to 221 °C | N#Cc1cc(Oc2ccc(NC(=O)Nc3ccc4c(c3)C(F)(F)OC(F)(F)O4)c(C(F)(F)F)c2)ccn1 [Entry 128, {[4-(2-cyano(4-pyridyloxy))-2-(trifluoromethyl)phenyl]amino}-N-(2,2,4,4-tetrafluorobenzo[3,4-e]1,3-dioxan-6-yl)carboxamide]
6 | 181 to 182 °C | N#Cc1cc(Oc2ccc(NC(=O)Nc3ccc4c(c3)C(F)(F)OC(F)(F)O4)c(F)c2F)ccn1 [Entry 129, {[4-(2-cyano(4-pyridyloxy))-2,3-difluorophenyl]amino}-N-(2,2,4,4-tetrafluorobenzo[3,4-e]1,3-dioxan-6-yl)carboxamide]
7 | 183 to 185 °C | CSc1cc(Oc2ccnc(C#N)c2)ccc1NC(=O)Nc1ccc2c(c1)C(F)(F)OC(F)(F)O2 [Entry 140, {[4-(2-cyano(4-pyridyl)oxy)-2-methylthiophenyl]amino}-N-(2,2,4,4-tetrafluorobenzo[3,4-e]1,3-dioxan-6-yl)carboxamide]
8 | 229 to 230 °C | CS(=O)(=O)c1cc(Oc2ccnc(C#N)c2)ccc1NC(=O)Nc1ccc2c(c1)C(F)(F)OC(F)(F)O2 [Entry 141, {[4-(2-cyano(4-pyridyl)oxy)-2-(methylsulfonyl)phenyl]amino}-N-(2,2,4,4-tetrafluorobenzo[3,4-e]1,3-dioxan-6-yl)carboxamide]
9 | 192 to 193 °C | N#Cc1cc(Oc2ccc(NC(=O)Nc3ccnc(C(F)(F)F)c3)c(F)c2)ccn1 [Entry 142, {[4-(2-cyano(4-pyridyloxy))-2-fluorophenyl]amino}-N-[2-(trifluoromethyl)(4-pyridyl)]carboxamide]
10 | 216 to 217 °C | CC(C)(C)c1ccnc(NC(=O)Nc2ccc(Oc3ccnc(C#N)c3)cc2)c1 [Entry 143, N-[4-(tert-butyl)(2-pyridyl)]{[4-(2-cyano(4-pyridyloxy))phenyl]amino}carboxamide]
11 | 209 to 210.5 °C | N#Cc1cc(Oc2ccc(NC(=O)Nc3cc(C(F)(F)F)ccn3)c(C(F)(F)F)c2)ccn1 [Entry 150, {[4-(2-cyano(4-pyridyloxy))-2-(trifluoromethyl)phenyl]amino}-N-[4-(trifluoromethyl)(2-pyridyl)]carboxamide]
12 | 202 °C | N#Cc1cc(Oc2ccc(NC(=O)Nc3cc(C(F)(F)F)ccn3)cc2)ccn1 [Entry 152, {[4-(2-cyano(4-pyridyloxy))phenyl]amino}-N-[4-(trifluoromethyl)(2-pyridyl)]carboxamide]
13 | 209 to 210 °C | CCc1ccnc(NC(=O)Nc2ccc(Oc3ccnc(C#N)c3)cc2)c1 [Entry 153, {[4-(2-cyano(4-pyridyloxy))phenyl]amino}-N-(4-ethyl(2-pyridyl))carboxamide]
14 | 245.5 °C | Cc1ccc2cc(NC(=O)Nc3ccc(Oc4ccnc(C#N)c4)cc3)ccc2n1 [Entry 154, {[4-(2-cyano(4-pyridyloxy))phenyl]amino}-N-(2-methyl(6-quinolyl))carboxamide]
15 | 208 to 212 °C | N#Cc1cc(Oc2ccc(NC(=O)Nc3cc4ccccc4cn3)cc2)ccn1 [Entry 159, {[4-(2-cyano(4-pyridyloxy))phenyl]amino}-N-(3-isoquinolyl)carboxamide]
16 | 218 to 220 °C | N#Cc1cc(Oc2ccc(NC(=O)Nc3cc4ccccc4cn3)c(F)c2)ccn1 [Entry 160, {[4-(2-cyano(4-pyridyloxy))-2-fluorophenyl]amino}-N-(3-isoquinolyl)carboxamide]
17 | 239 to 240 °C | Cn1ncc2cc(NC(=O)Nc3ccc(Oc4ccnc(C#N)c4)cc3C(F)(F)F)ccc21 [Entry 165, {[4-(2-cyano(4-pyridyloxy))-2-(trifluoromethyl)phenyl]amino}-N-(1-methyl(1H-indazol-5-yl))carboxamide]

From patent publication US7557129B2, “Cyanopyridine derivatives useful in the treatment of cancer and other disorders” (Bayer Healthcare LLC, priority 2003, dated 2009)
